The values that follow come from PubChem BioAssay AID1745844 (Carcinogenic Potency Database (CPDB), 2022).

Active and inactive are the calls of the source. No rule for the calls is given here.

The test system of the data set is rodent lifetime carcinogenesis bioassay, tumor incidence TD50. Nature of the data set: chronic cancer bioassays in animals – CPDB, compiled studies (AID 1745844).

Consider `C=CC1CC=CCC1` (configuration not stated), for which the TD50 (in general, the 50% point of the dose-response relation for the toxic effect studied) came out at 1050 mg/kg/day (mouse, strain B6C3F1, females, by gavage, site: adrenal capsule, lesion: adenoma, NOS, dosed 103 weeks, study length 104 weeks); 149 mg/kg/day (mouse, strain B6C3F1, females, by gavage, site: any site (literature study), lesion: several types, types named in the paper, dosed 103 weeks, study length 104 weeks); 1480 mg/kg/day (mouse, strain B6C3F1, females, by gavage, site: liver, lesion: hepatocellular adenoma + hepatocellular carcinoma + neoplastic nodule, dosed 103 weeks, study length 104 weeks); 19000 mg/kg/day (mouse, strain B6C3F1, females, by gavage, site: lung, lesion: alveolar/bronchiolar adenoma + alveolar/bronchiolar carcinoma, dosed 103 weeks, study length 104 weeks); 839 mg/kg/day (mouse, strain B6C3F1, females, by gavage, site: mesenteric lymph node + multiple organs + small intestine, lesion: malignant lymphoma, lymphocytic type, dosed 103 weeks, study length 104 weeks); 94.4 mg/kg/day (mouse, strain B6C3F1, females, by gavage, site: ovary, lesion: granulosa-cell carcinoma + granulosa-cell tumor + mixed tumor, benign, dosed 103 weeks, study length 104 weeks). The TD50 (mouse, strain B6C3F1, females, by gavage, site: ovary, lesion: granulosa-cell carcinoma + granulosa-cell tumor, dosed 103 weeks, study length 104 weeks) was 309 mg/kg/day; the TD50 (mouse, strain B6C3F1, females, by gavage, site: ovary, lesion: granulosa-cell tumor, dosed 103 weeks, study length 104 weeks) is 361 mg/kg/day; the TD50 (mouse, strain B6C3F1, females, by gavage, site: ovary, lesion: mixed tumor, benign, dosed 103 weeks, study length 104 weeks) was 106 mg/kg/day; the TD50 (mouse, strain B6C3F1, males, by gavage, site: any site (literature study), lesion: several types, types named in the paper, dosed 103 weeks, study length 104 weeks) came out at 307 mg/kg/day; the TD50 (mouse, strain B6C3F1, males, by gavage, site: liver, lesion: hepatocellular adenoma + hepatocellular carcinoma + neoplastic nodule, dosed 103 weeks, study length 104 weeks) worked out at 1270 mg/kg/day; the TD50 (mouse, strain B6C3F1, males, by gavage, site: lung, lesion: alveolar/bronchiolar adenoma + alveolar/bronchiolar carcinoma, dosed 103 weeks, study length 104 weeks) was 490 mg/kg/day. Further, the TD50 runs as follows: (mouse, strain B6C3F1, males, by gavage, site: lung, lesion: alveolar/bronchiolar adenoma, dosed 103 weeks, study length 104 weeks) 926 mg/kg/day; (mouse, strain B6C3F1, males, by gavage, site: mesenteric lymph node + multiple organs + spleen, lesion: malignant lymphoma, histiocytic type + malignant lymphoma, mixed type + malignant lymphoma, lymphocytic type, dosed 103 weeks, study length 104 weeks) 623 mg/kg/day; (rat, strain Fischer 344, females, by gavage, site: any site (literature study), lesion: several types, types named in the paper, dosed 103 weeks, study length 104 weeks) 305 mg/kg/day; (rat, strain Fischer 344, females, by gavage, site: clitoral gland, lesion: adenoma, NOS + squamous-cell carcinoma, dosed 103 weeks, study length 104 weeks) 580 mg/kg/day; (rat, strain Fischer 344, females, by gavage, site: liver, lesion: hepatocellular adenoma + hepatocellular carcinoma + neoplastic nodule, dosed 103 weeks, study length 104 weeks) 3.85e+06 mg/kg/day; (rat, strain Fischer 344, males, by gavage, site: adrenal gland, lesion: pheochromocytoma + pheochromocytoma, malignant, dosed 103 weeks, study length 104 weeks) 159 mg/kg/day. Moreover, the TD50 came to 119 mg/kg/day (rat, strain Fischer 344, males, by gavage, site: any site (literature study), lesion: several types, types named in the paper, dosed 103 weeks, study length 104 weeks); 132000 mg/kg/day (rat, strain Fischer 344, males, by gavage, site: liver, lesion: hepatocellular adenoma + hepatocellular carcinoma + neoplastic nodule, dosed 103 weeks, study length 104 weeks); 769 mg/kg/day (rat, strain Fischer 344, males, by gavage, site: skin, lesion: squamous-cell carcinoma + squamous-cell papilloma, dosed 103 weeks, study length 104 weeks); 935 mg/kg/day (rat, strain Fischer 344, males, by gavage, site: skin, lesion: squamous-cell papilloma, dosed 103 weeks, study length 104 weeks); 62.3 mg/kg/day (rat, strain Fischer 344, males, by gavage, site: testis, lesion: interstitial-cell tumor, dosed 103 weeks, study length 104 weeks).

Take `ClCOCCCCCCOCCl`: the carcinogen call (mouse, strain Ha/ICR, females, i.p., site: abdomen, lesion: sarcoma, dosed 81 weeks, study length 81 weeks) was “negative (inactive)”.

The compound `C#C[C@]1(C(C)=O)CC[C@H]2[C@@H]3CCC4=C[C@@H](C(C)=O)CC[C@@H]4[C@H]3CC[C@@]21C` (tested in a mixture with another compound) gave a TD50 (mouse, strain (C3H x RIII)F1 (MTV+), females, in feed, site: mammary tissue, wider than the gland, lesion: one or several types, types not named, dosed 104 weeks, study length 104 weeks) of 0.858 mg/kg/day and a TD50 (mouse, strain (C3H x RIII)F1 (MTV+), males, in feed, site: mammary tissue, wider than the gland, lesion: one or several types, types not named, dosed 104 weeks, study length 104 weeks) of 0.3 mg/kg/day.

`O=C[C@H](NC(=O)N(CCCl)N=O)[C@@H](O)[C@H](O)[C@H](O)CO`: the TD50 reads like this: (rat, strain Sprague-Dawley, females, i.p., site: any site (literature study), lesion: malignant tumor, dosed 88 weeks, study length 114 weeks) 0.108 mg/kg/day; (rat, strain Sprague-Dawley, females, i.p., site: peritoneal cavity, lesion: several types, types named in the paper, dosed 88 weeks, study length 114 weeks) 0.0844 mg/kg/day; (rat, strain Sprague-Dawley, males, i.p., site: any site (literature study), lesion: malignant tumor, dosed 77 weeks, study length 100 weeks) 0.0521 mg/kg/day; (rat, strain Sprague-Dawley, males, i.p., site: peritoneal cavity, lesion: several types, types named in the paper, dosed 77 weeks, study length 100 weeks) 0.0241 mg/kg/day.

Regarding `CC[N+]([O-])=NC`, the TD50 is, setting by setting: (rat, strain Fischer 344, males, in drinking water, site: colon, lesion: several types, types named in the paper, dosed 30 weeks, study length 55 weeks) 0.125 mg/kg/day; (rat, strain Fischer 344, males, in drinking water, site: ileum, lesion: one or several types, types not named, dosed 30 weeks, study length 55 weeks) 0.221 mg/kg/day; (rat, strain Fischer 344, males, in drinking water, site: liver, lesion: hemangiosarcoma, dosed 30 weeks, study length 55 weeks) 0.0391 mg/kg/day; (rat, strain Fischer 344, males, in drinking water, site: liver, lesion: hepatocellular carcinoma, dosed 30 weeks, study length 55 weeks) 0.0189 mg/kg/day; (rat, strain Fischer 344, males, in drinking water, site: liver, lesion: neurosarcoma, dosed 30 weeks, study length 55 weeks) 0.0832 mg/kg/day. In addition, the carcinogen call (rat, strain Fischer 344, males, in drinking water, site: liver, lesion: several types, types named in the paper, dosed 30 weeks, study length 55 weeks) is “positive”.

Consider `CCNNC(=O)[C@@H]1[C@H](c2cc(OC)c(OC)c(OC)c2)c2cc3c(cc2[C@H](O)[C@H]1CO)OCO3`, for which the carcinogen call (rat, strain BR 46, males, i.v., site: any site (literature study), lesion: several types, types named in the paper, dosed 52 weeks, study length 104 weeks) is “negative (inactive)”.

As for `C[N+](C)(C)CCO`, the TD50 runs as follows: (mouse, strain C3H/HeN, males, in feed, site: liver, lesion: hepatocellular adenoma, dosed 52 weeks, study length 52 weeks) 5650 mg/kg/day; (mouse, strain C3H/HeN, males, in feed, site: liver, lesion: hepatocellular carcinoma, dosed 52 weeks, study length 52 weeks) 6060 mg/kg/day; (mouse, strain C3H/HeN, males, in feed, site: liver, lesion: several types, types named in the paper, dosed 52 weeks, study length 52 weeks) 2770 mg/kg/day. Besides, where the note is “rat, strain Fischer 344, males, in feed, site: liver, lesion: neoplastic nodule, dosed 72 weeks, study length 103 weeks”, the carcinogen call was “negative (inactive)”.

As for `O=S(O)O`, the TD50 (mouse, strain ICR/Jcl, females, in drinking water, site: liver, lesion: hemangioendothelial sarcoma, dosed 104 weeks, study length 104 weeks) was 204000 mg/kg/day (inactive); the TD50 (mouse, strain ICR/Jcl, females, in drinking water, site: lung, lesion: adenocarcinoma, dosed 104 weeks, study length 104 weeks) is 100000 mg/kg/day (inactive); the TD50 (mouse, strain ICR/Jcl, females, in drinking water, site: lung, lesion: adenoma, dosed 104 weeks, study length 104 weeks) is 33600 mg/kg/day (inactive); the TD50 (mouse, strain ICR/Jcl, males, in drinking water, site: lung, lesion: adenocarcinoma, dosed 104 weeks, study length 104 weeks) was 84800 mg/kg/day (inactive); the TD50 (mouse, strain ICR/Jcl, males, in drinking water, site: lung, lesion: adenoma, dosed 104 weeks, study length 104 weeks) is 84800 mg/kg/day (inactive). The carcinogen call (mouse, strain ICR/Jcl, males, in drinking water, site: liver, lesion: one or several types, types not named, dosed 104 weeks, study length 104 weeks) was “negative (inactive)”.
